Source: publication PMC7961996, “Small Immunomodulatory Molecules as Potential Therapeutics in Experimental Murine Models of Acute Lung Injury (ALI)/Acute Respiratory Distress Syndrome (ARDS)” (International Journal of Molecular Sciences, 2021)

What was measured:
[1] = Toxicology study of AVR-48, IV dose escalation and repeat dose phases; format: in vivo, Sprague Dawley rats
Protocol: For the PK study of AVR-48 in rats, a formulation consisting of 10% DMSO, 20% tetraglycol, 20% PEG 400, and 50% sterile water was developed. Each preparation was made on the same day of dose administration. The components of the control/vehicle item formulation were added sequentially. Briefly, the appropriate volume of DMSO (10% of the final volume) was measured into a container followed by gradual addition of PEG 400 (20% of the final volume) and sterile water (50% of the final volume) to make up the volume and mixed thoroughly till completely dissolved. The final solution was filtered through a 0.22 µm membrane filter (Millipore Millex® GP PES, St. Louis, MO, USA) into a sterile vial.
The toxicology study of AVR-48 was performed with both 8–10 week old male and female Sprague Dawley rats, in two phases following standard FDA guidance [M3(R2)R]. AVR-48 was injected IV at a volume of 5 mL/kg of body weight after reconstituting in 10% DMSO, 20% tetraglycol, and 20% PEG 400 in sterile water. In the dose escalation phase, 75 to 100 mg/kg per day was administered as two separate doses approximately 6–7 h apart by IV slow bolus injection at a volume of 5 mL/kg of body weight. Three animals of each sex were dosed at each dose level. During the repeat dose phase, daily doses of 0, 40, and 80 mg/kg/day were administered as two divided doses delivered by slow bolus injection at a volume of 5 mL/kg of body weight approximately 6–7 h apart. Study animals (n = 5/sex/dose) were treated for three days with a total of six doses for AVR-48. Twelve to eighteen hours after the last dose was administered, animals were euthanized and blood collected for analysis of clinical chemistry and other hematological parameters. Detailed necropsy examinations were performed on each animal, and tissues were collected and fixed with standard fixatives for histological analysis and interpretation.

[2] = tested on: hyperoxia-induced ALI mice; test: Hyperoxia-induced ALI murine model; format: in vivo, C57BL6/J mice
Protocol: For the mouse efficacy studies, both AVR-25 and AVR-48 were reconstituted in 0.9% sterile normal saline to give a final concentration of 10 mg/kg; 125 µL was administered intraperitoneally (IP) for hyperoxia- and LPS- induced lung injury, and IV via the lateral tail vein for CLP-induced lung injury. Imipenem (Primaxin®) was formulated in sterile 0.9% saline solution and administered subcutaneously (SC) at a dose of 5 mg/kg to mice in a 0.2 mL volume near the dorsal scapular region for CLP-induced lung injury study. LPS was dissolved in sterile 0.9% saline solution and 100 µL was administered intratracheally for the ALI study.
Three models of ALI were used in the current study: hyperoxia-, LPS-, and CLP-induced lung injury: LPS-induced ALI was induced by administering a one-time intratracheal instillation of LPS (100 µg in a volume of 100 µL). Animals were sacrificed after 24 h following LPS administration while two doses of AVR-25 and AVR-48 were administered (10 mg/kg, IP) at 4 h and 12 h following LPS dosing. Hyperoxia-induced ALI was initiated by keeping the mice in cages in airtight polypropylene chamber exposed to hyperoxia (100% oxygen) for 48 h, following a standard protocol. Two doses of AVR-25 and AVR-48 were administered (10 mg/kg, IP) at 4 h and 12 h following hyperoxia exposure, and mice were sacrificed after 48 h.
At the end of the experimental time points for all the above groups, the mice were euthanized with an overdose of a cocktail of xylazine (100 mg/kg)/ketamine (10 mg/kg, IP) and BALF and lung tissues were harvested for further analysis. Male mice were used for all the ALI experiments.
BALF was obtained from the anesthetized mice by cannulating the upper part of the trachea with a blunt 22-gauge needle and then by lavaging three times with 1.0 mL of cold PBS (pH 7.4). The fluid recovery rate was about 90%. Lavaged samples were kept on ice, and the BALF was centrifuged at 4 °C. Total cell counts in BALF were determined using the TC20 automated cell counter (Bio-Rad Laboratories, Inc., Hercules, CA, USA). The differential cell counts were performed on cytospin preparations after staining with the Hema 3 differential Staining kit (Fisher Scientific, Kalamazoo, MI, USA). Total protein concentration in the BALF was measured using the Pierce^TM BCA assay kit (Fisher Scientific Co, Houston, TX, USA), as previously described.
Lung endothelium permeability was determined by measuring the accumulation of Evans blue in the lungs, as previously described. In brief, Evans blue dye (EBD) solution (Sigma-Aldrich, Inc., St. Louis, MO, USA, 5 mg/mL) was injected into the tail vein at a concentration of 50 mg/kg before 30 min of the experimental time point. At the experimental time points, lungs were excised and weighed. EBD was extracted in 2 mL formamide kept in a water bath at 60 °C for 3 h, and the samples were centrifuged at 500 g for 10 min. The absorption of light at 595 nm was measured spectrophotometrically (Microplate reader, Bio-Rad Laboratories, Hercules, CA, USA) with the supernatants.
Interleukin (IL)-6, IL-1β, and IL-10 were quantified on BALF while E-selectin was quantified in lung homogenate using commercially available DuoSet® ELISA kits (R&D Systems, Minneapolis, MN, USA) according to the manufacturer’s instructions, as previously described. Briefly, Nalgene Nunc Maxisorp™ plates were coated overnight with antibodies to IL-6 (2 µg/mL), IL-1β (2 µg/mL) IL-10 (2 µg/mL), or E-selectin (2 µg/mL) and the following morning plates were washed and blocked for 2 h. Samples were added to the wells at various dilutions and then incubated with detection antibody for 2 h. Plates were subsequently washed, and streptavidin-HRP conjugate antibody was added to each well for 20 min. […]

[3] = 10 mg/kg IP at 4 h and 12 h of hyperoxia (100% oxygen), 48 h

CC(=O)N[C@H]1[C@H](Oc2ccc([N+](=O)[O-])cc2)O[C@H](CO)[C@@H](O)[C@@H]1O [AVR-48, N-((2S,3R,4R,5S,6R)-4,5-dihydroxy-6-(hydroxymethyl)-2-(4-nitrophenoxy)tetrahydro-2H-pyran-3-yl) acetamide]
tolerability, repeat administration ([1]; 40 and 80 mg/kg/day as two daily doses of 20 and 40 mg/kg for three consecutive days, IV): well tolerated with no adverse clinical signs
hematology and clinical chemistry parameters ([1]; IV for three consecutive days, up to 80 mg/kg/day): no changes in any of the hematology or clinical chemistry parameters
MTD at 3 days ([1]; both sexes, Sprague Dawley, rat, in vivo, IV, two daily doses for three consecutive days, male and female rats): 80 mg/kg/day
NOAEL at 3 days ([1]; both sexes, Sprague Dawley, rat, in vivo, IV, two daily doses for three consecutive days, male and female rats, read-out: no observable adverse effect level (NOAEL)): 80 mg/kg/day
adverse signs ([1]; dose escalation, 75 mg/kg/day IV): No adverse signs were observed
mortality ([1]; dose escalation, 100 mg/kg total daily dose IV): A single animal that received a total daily dose of 100 mg/kg died
clinical signs ([1]; dose escalation, 100 mg/kg total daily dose, two IV bolus 6-7 h apart): clinical signs of hypoactivity, respiratory changes, changes in posture, and loss of motor coordination were observed
therapeutic window over the efficacious dose ([1]; rat MTD/NOAEL vs 10 mg/kg efficacious dose in mouse): ~8 fold
systemic gross observations at necropsy ([1]; repeat dose IV): no evidence of any AVR-48 related systemic gross observations at necropsy
neutrophils infiltration into the lung (BALF) [2, 3]: diminished
total immune cells infiltration into the lung (BALF) [2, 3]: diminished
Evans Blue dye leak concentration in the lungs ([2]; 10 mg/kg IP x2): diminished levels
expression of lung adhesion molecules ICAM-1, VCAM-1, and E-selectin in whole lung tissue ([2]; 10 mg/kg IP x2): decreased expression
total proteins in BALF (pulmonary edema) ([2]; 10 mg/kg IP x2): diminished levels
levels of pro-inflammatory cytokines (IL-1β, IL-6) in BALF and lung tissues ([2]; 10 mg/kg IP x2, 48 h, vs untreated ALI mice): decreased levels
lung injury (H&E, injury score) ([2]; 10 mg/kg IP x2, 0-4 scoring): improved lung injury
IL-10 levels in BALF ([2]; 10 mg/kg IP x2, ELISA, vs non-treated ALI mice): further increase
expression of cleaved caspase-3 in lungs (lung cell death) ([2]; 10 mg/kg IP x2, Western blot): reduced expression
expression of endothelial AJ proteins VE-cadherin and β-catenin in whole lungs ([2]; 10 mg/kg IP x2, Western blot): increased expression
expression of phosphorylated-Src in whole lungs ([2]; 10 mg/kg IP x2, Western blot): decreased expression
